We go through two compounds from patent US5108754A, “Orthomolecular method of treating sickle cell disease” (priority 1991, dated 1992).

One data set has as its system rats. Here is the method:
The compound prepared according to Example 1 was subjected to a toxicity study in accordance with techniques well-known in the art. The study was conducted on rats over a three-day testing period.

For data set [1] the following is noted: prior-art antisickling agent; cited from earlier work.
Setting [2] is: second day, 0.01% dosage, individual rats #A-#D, listed as active agent.

Several values for one entry are separate records, joined by “and”; a condition that tells them apart may be missing. Identical values can stand only once.

In the case of `Cc1c(C)c2c(c(C)c1OC(=O)C(N)CC[S+](C)CC1OC(n3cnc4c(N)ncnc43)C(O)C1O)CCC(C)(CCCC(C)CCCC(C)CCCC(C)C)O2.[I-]` (stereo not drawn) [Example 1, α-(S-adenosylmethionine)-O-tocopherol], the “rats killed after administration of the drug formulation” value in the data set on rats (rats, three days, 0.001%, 0.01%, 0.1% of rat weight on days 1, 2, 3) was “none of the rats tested were killed”. For the same compound, the toxicity entry in the data set with rats (rats, three-day study, 0.001%, 0.01%, 0.1% of rat weight) was “substantially non-toxic”. In addition, in the data set with rats (setting [2]), the “Body Fluid Concentraton 0.01%” value was 0.14 and 0.07; the “Weight After” value was 28.5 grams and 26.4 grams and 29.5 grams; the “Weight Before” value is 28.3 grams and 26.3 grams and 29.4 grams; the “Weight Change” value is 0.2 grams and 0.1 grams.
Regarding `N#CO` [potassium cyanate], the toxicity entry in data set [1] is “rather high toxicity”.
